The term pKa denotes the pH at which an ionisable group is half protonated. Broadly, the IC50 is the concentration at which inhibition is half-maximal.

The values below come from ChEMBL document CHEMBL1157648, “Structural-based design and synthesis of novel 9-deazaguanine derivatives having a phosphate mimic as multi-substrate analogue inhibitors for mammalian PNPs” (Bioorg Med Chem, 2010).

For series [1], the target named is T1, Purine nucleoside phosphorylase (Bos taurus, UniProt P55859).
T1 sequence (P55859 whole entry): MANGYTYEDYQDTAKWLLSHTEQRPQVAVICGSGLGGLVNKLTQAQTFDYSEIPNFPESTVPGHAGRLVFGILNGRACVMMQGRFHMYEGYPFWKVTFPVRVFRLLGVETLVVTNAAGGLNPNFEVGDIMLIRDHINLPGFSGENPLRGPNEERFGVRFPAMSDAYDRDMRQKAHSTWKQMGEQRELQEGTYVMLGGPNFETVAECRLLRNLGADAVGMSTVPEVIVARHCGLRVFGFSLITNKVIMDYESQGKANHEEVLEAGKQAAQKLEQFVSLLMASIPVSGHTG

The target in series [2] is T2, Purine nucleoside phosphorylase (Bos taurus) (UniProt P55859).
T2 sequence (whole entry): T1 sequence (P55859 whole entry)
Conditions: Spleen.

Series [3] in a line: Dissociation constant, pKa at 2 mg by spectrophotometry.
Series [4] concerns the target T1, Purine nucleoside phosphorylase. Kind of series: Inhibition of calf spleen PNP assessed as inhibition of 7-methylguanosine phosphorolysis after 50 mins by spectrophotometry in presence of 1 mM inorganic phosphate. Conditions: read-out: Ki(app).
The target of series [5] is T3, Purine nucleoside phosphorylase (Homo sapiens, UniProt P00491).
T3 sequence (P00491 whole entry): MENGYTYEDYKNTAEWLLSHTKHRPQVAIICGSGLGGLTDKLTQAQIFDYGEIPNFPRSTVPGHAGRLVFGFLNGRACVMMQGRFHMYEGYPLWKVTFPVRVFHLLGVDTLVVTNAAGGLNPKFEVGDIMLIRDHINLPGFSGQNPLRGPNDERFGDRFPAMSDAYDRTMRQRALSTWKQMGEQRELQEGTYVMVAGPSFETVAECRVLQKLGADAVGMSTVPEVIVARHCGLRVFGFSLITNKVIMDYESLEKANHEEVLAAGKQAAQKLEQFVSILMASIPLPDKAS
Put plainly: Inhibition of human erythrocyte PNP assessed as inhibition of 7-methylguanosine phosphorolysis after 50 mins by spectrophotometry in presence of 1 mM inorganic phosphate. The following applies: read-out: Ki(app).

In series [6] the target is T2, Purine nucleoside phosphorylase (Bos taurus). The following applies: Spleen. This is another data set of the same source.
Series [7] has as its target T4, Purine nucleoside phosphorylase (Homo sapiens) (UniProt P00491).
T4 sequence (whole entry): T3 sequence (P00491 whole entry)
The following applies: 4.99 to 18.71 uM.

The target of series [8] is T3, Purine nucleoside phosphorylase. Kind of series: Inhibition of human erythrocyte PNP assessed as inhibition of 25 uM 7-methylguanosine phosphorolysis by spectrophotometry in presence of 1 mM inorganic phosphate.

“And” between values parts separate entries of the source, which are not always exact repeats. Equal entries are not always repeated. The source made the active and inactive calls. No cut-off for these calls is given here.

Compound `O=c1[nH]cnc2c([C@@H]3N[C@H](CO)[C@@H](O)[C@H]3O)c[nH]c12` [FORODESINE] gave a Ki in series [1] of 41 nM. In series [2], this compound displayed a Kieq of 0.023 nM.
In series [3], `Cn1c(N)nc2ccn(C)c2c1=O` yielded a pKa of 10.6.
Consider `Nc1nc2c(CCCCCCCC(F)(F)P(=O)(O)O)c[nH]c2c(=O)[nH]1`, for which the Ki in series [4] is 6.1 nM and 0.94 nM; in series [5], 5.6 nM.
For the compound `Nc1nc2c(CCCCC(F)(F)P(=O)(O)O)c[nH]c2c(=O)[nH]1`, the Kieq in series [6] is 0.085 nM. In addition, the inhibition result in series [7] was “Active”.
For the compound `CCOP(=O)(OCC)C(F)(F)CCCc1c[nH]c2c(=O)[nH]c(N)nc12`, the IC50 in series [8] is 170 nM.
In series [6], `Nc1nc(O)c2ncn(CCCCC(F)(F)P(=O)(O)O)c2n1` displayed a Kieq of 0.72 nM.
As to `Cn1c(N)nc2cc[nH]c2c1=O`, the pKa in series [3] was 5.1.
